Experimental data from ChEMBL document CHEMBL1141951, “Anti-malarial activity of Baylis-Hillman adducts from substituted 2-chloronicotinaldehydes” (Bioorg Med Chem Lett, 2005).
Converted amounts (≈) assume the structure as drawn.

Legend:
Assay type in all cases: functional, organism-based
[1] = test system: Plasmodium falciparum; assay: Antimalarial activity as reduced schizont maturation after 24 hrs against chloroquine-resistant Plasmodium falciparum FDL-NG
[2] = test system: Plasmodium falciparum; assay: Antimalarial activity as growth inhibition after 48 hrs against chloroquine-resistant Plasmodium falciparum FDL-NG
[3] = test system: Plasmodium falciparum; assay: Antimalarial activity as growth inhibition after 48 hrs against chloroquine-sensitive Plasmodium falciparum FDL-B
[4] = test system: Plasmodium falciparum; assay: Antimalarial activity as reduced schizont maturation against chloroquine-sensitive Plasmodium falciparum FDL-B after 24 hrs

Compound	IC50 [1] [µg/mL]	IC50 [2] [µg/mL]	IC50 [3] [µg/mL]	IC50 [4] [µg/mL]	IC90 [1] [µg/mL]	IC90 [2] [µg/mL]	IC90 [4] [µg/mL]	IC90 [3] [µg/mL]
C=C(C#N)C(O)c1cc(CC)cnc1Cl (centres undefined)	2.5 (≈ 11.2 µM)	5.5 (≈ 24.7 µM)	4 (≈ 18 µM)	1.8 (≈ 8.08 µM)	–	–	–	–
C=C(C#N)C(O)c1cc(C)cnc1Cl (centres undefined)	22.5 (≈ 108 µM)	10.5 (≈ 50.3 µM)	1.3 (≈ 6.23 µM)	1.25 (≈ 5.99 µM)	–	–	–	–
C=C(C#N)C(O)c1cc(-c2ccccc2)cnc1Cl (centres undefined)	0.9 (≈ 3.32 µM)	2.2 (≈ 8.13 µM)	8 (≈ 29.6 µM)	3.6 (≈ 13.3 µM)	–	–	–	–
C=C(C(=O)OC)C(O)c1cc(C)cnc1Cl (centres undefined)	3.05 (≈ 12.6 µM)	5.75 (≈ 23.8 µM)	28.5 (≈ 118 µM)	18 (≈ 74.5 µM)	7 (≈ 29 µM)	27.5 (≈ 114 µM)	32 (≈ 132 µM)	–
C=C(C#N)C(O)c1ccc(C(=O)OC)nc1Cl (centres undefined)	5.75 (≈ 22.8 µM)	6.75 (≈ 26.7 µM)	7 (≈ 27.7 µM)	3.4 (≈ 13.5 µM)	–	–	–	–
CCN(CC)CCCC(C)Nc1ccnc2cc(Cl)ccc12 (centres undefined) [CHLOROQUINE]	–	–	–	–	–	–	0.018 (≈ 0.0563 µM)	0.02 (≈ 0.0625 µM)
C=C(C(=O)OC)C(O)c1cc(-c2ccccc2)cnc1Cl (centres undefined)	5 (≈ 16.5 µM)	10.8 (≈ 35.4 µM)	115 (≈ 379 µM)	45 (≈ 148 µM)	–	–	–	–
